For data set [1], the target named is T1, Aurora kinase A (Homo sapiens, UniProt O14965).
T1 sequence (O14965 whole entry): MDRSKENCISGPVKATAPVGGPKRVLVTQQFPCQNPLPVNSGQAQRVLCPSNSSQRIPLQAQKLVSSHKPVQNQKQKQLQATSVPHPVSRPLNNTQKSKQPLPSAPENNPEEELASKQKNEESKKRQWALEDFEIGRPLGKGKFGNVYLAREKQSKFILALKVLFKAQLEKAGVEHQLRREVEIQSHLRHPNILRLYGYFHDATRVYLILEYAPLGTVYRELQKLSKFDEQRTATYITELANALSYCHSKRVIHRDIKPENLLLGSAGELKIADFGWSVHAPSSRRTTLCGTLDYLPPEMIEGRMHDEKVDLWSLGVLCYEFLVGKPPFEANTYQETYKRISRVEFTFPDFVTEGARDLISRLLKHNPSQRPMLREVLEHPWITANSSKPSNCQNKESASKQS
In words: Inhibition of Aurora A (unknown origin) using H-LRRASLG substrate by radioisotope-based P81 filter-binding assay.

For data set [2], the target named is Aurora kinase B (Homo sapiens, UniProt Q96GD4). In words: Inhibition of Aurora B (unknown origin) using H-LRRASLG substrate by radioisotope-based P81 filter-binding assay.
Aurora kinase B, sequence (Q96GD4 whole entry): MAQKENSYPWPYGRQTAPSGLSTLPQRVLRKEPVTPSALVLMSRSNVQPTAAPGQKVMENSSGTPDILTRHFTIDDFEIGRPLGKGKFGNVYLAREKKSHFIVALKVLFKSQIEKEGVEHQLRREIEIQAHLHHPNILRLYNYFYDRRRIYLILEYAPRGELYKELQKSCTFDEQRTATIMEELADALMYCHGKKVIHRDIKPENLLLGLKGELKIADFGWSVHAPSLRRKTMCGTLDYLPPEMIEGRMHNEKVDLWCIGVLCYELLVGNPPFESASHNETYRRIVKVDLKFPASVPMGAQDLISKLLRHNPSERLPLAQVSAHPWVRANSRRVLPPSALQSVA
For data set [3], the target named is T2, Aurora kinase C (Homo sapiens, UniProt Q9UQB9).
T2 sequence (Q9UQB9 whole entry): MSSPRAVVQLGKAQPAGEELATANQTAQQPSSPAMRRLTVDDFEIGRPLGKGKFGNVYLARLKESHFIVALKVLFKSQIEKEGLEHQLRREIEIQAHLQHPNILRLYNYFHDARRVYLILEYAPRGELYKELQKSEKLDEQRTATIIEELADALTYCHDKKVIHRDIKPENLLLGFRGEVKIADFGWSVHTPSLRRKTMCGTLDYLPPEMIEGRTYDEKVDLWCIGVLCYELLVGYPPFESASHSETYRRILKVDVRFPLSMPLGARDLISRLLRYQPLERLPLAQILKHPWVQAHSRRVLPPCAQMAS
In words: Inhibition of Aurora C (unknown origin) using H-LRRASLG substrate by radioisotope-based P81 filter-binding assay.

Data set [4] concerns the target T3, Receptor-type tyrosine-protein kinase FLT3 (Homo sapiens, UniProt P36888).
T3 sequence (P36888 whole entry): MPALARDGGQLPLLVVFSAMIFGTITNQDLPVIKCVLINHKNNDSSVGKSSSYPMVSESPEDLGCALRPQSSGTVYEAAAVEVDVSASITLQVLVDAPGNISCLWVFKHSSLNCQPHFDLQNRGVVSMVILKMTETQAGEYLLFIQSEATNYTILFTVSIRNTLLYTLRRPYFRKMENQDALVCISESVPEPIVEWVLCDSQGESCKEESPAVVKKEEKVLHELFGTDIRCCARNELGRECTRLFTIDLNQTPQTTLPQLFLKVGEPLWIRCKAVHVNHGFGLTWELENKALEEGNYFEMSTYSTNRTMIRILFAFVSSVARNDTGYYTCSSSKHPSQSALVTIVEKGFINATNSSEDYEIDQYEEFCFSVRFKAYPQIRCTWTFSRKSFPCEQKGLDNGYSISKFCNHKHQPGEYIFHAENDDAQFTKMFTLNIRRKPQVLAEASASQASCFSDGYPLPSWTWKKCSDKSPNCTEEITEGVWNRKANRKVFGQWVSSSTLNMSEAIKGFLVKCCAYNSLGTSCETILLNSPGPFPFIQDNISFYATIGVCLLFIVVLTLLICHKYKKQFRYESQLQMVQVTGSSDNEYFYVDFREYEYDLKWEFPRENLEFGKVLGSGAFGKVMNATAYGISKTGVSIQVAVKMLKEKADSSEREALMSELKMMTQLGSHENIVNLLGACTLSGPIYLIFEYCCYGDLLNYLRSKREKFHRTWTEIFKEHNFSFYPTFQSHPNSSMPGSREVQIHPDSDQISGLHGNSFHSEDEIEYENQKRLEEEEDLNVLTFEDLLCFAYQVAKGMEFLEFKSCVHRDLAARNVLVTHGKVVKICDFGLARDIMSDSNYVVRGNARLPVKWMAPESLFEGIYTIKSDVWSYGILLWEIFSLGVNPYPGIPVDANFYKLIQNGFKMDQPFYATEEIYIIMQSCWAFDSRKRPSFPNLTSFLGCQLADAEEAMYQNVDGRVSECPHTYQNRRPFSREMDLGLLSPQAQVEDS
In words: Inhibition of Flt3 (unknown origin) using EAIYAAPFAKKK substrate by radioisotope-based P81 filter-binding assay.

The target in data set [5] is Hepatocyte growth factor receptor (Homo sapiens, UniProt P08581). In words: Inhibition of c-Met (unknown origin) using KKKSPGEYVNIEFG substrate by radioisotope-based P81 filter-binding assay.
Hepatocyte growth factor receptor, sequence (P08581 whole entry): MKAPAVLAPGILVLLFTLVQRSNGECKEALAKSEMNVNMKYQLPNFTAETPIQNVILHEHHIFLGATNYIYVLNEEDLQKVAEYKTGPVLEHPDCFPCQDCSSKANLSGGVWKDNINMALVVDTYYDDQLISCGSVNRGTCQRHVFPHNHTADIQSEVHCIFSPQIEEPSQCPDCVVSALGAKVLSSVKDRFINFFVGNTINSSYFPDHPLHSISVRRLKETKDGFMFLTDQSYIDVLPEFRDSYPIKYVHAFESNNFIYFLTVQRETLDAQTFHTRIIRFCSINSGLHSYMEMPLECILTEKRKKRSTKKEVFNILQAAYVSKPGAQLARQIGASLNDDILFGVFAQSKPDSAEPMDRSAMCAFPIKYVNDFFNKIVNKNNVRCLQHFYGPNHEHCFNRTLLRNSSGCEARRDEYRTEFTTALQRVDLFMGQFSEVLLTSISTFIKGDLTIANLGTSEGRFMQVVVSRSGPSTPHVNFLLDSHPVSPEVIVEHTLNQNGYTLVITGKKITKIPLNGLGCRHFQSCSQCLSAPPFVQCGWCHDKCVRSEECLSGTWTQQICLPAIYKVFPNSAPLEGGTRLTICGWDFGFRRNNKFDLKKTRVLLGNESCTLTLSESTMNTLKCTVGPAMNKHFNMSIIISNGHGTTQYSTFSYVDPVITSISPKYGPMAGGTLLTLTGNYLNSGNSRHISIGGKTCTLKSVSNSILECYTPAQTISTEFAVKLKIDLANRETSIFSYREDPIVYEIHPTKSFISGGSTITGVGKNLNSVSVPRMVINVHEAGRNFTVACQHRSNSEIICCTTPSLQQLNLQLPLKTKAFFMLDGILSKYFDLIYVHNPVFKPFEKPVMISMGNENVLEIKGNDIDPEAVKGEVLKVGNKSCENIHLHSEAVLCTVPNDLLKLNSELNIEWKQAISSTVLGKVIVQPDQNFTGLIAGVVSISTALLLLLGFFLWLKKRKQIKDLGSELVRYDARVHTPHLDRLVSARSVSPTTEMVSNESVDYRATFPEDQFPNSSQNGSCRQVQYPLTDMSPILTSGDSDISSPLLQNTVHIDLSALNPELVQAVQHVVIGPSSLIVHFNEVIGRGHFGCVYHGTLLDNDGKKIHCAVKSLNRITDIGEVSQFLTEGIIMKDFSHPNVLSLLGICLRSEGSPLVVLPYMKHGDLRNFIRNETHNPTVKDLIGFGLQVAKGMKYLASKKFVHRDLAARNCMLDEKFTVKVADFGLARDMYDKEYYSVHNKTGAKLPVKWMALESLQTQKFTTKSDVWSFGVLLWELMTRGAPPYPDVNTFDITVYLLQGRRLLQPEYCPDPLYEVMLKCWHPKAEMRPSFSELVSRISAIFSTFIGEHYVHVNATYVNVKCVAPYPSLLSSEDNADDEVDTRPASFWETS
In data set [6] the test system is A549. In words: Cytotoxicity against human A549 cells by SRB assay. It is filed as cell-based. On the technique in general: The SRB assay estimates cell density from bound dye.
The subject of data set [7] is HepG2. In words: Cytotoxicity against human HepG2 cells by SRB assay. The data set is classed as cell-based.
Data set [8] deals with Platelet-derived growth factor receptor beta (Homo sapiens, UniProt P09619). In words: Inhibition of PDGFRbeta (unknown origin) using poly[Glu:Tyr] (4:1) substrate by radioisotope-based P81 filter-binding assay.
Platelet-derived growth factor receptor beta, sequence (P09619 whole entry): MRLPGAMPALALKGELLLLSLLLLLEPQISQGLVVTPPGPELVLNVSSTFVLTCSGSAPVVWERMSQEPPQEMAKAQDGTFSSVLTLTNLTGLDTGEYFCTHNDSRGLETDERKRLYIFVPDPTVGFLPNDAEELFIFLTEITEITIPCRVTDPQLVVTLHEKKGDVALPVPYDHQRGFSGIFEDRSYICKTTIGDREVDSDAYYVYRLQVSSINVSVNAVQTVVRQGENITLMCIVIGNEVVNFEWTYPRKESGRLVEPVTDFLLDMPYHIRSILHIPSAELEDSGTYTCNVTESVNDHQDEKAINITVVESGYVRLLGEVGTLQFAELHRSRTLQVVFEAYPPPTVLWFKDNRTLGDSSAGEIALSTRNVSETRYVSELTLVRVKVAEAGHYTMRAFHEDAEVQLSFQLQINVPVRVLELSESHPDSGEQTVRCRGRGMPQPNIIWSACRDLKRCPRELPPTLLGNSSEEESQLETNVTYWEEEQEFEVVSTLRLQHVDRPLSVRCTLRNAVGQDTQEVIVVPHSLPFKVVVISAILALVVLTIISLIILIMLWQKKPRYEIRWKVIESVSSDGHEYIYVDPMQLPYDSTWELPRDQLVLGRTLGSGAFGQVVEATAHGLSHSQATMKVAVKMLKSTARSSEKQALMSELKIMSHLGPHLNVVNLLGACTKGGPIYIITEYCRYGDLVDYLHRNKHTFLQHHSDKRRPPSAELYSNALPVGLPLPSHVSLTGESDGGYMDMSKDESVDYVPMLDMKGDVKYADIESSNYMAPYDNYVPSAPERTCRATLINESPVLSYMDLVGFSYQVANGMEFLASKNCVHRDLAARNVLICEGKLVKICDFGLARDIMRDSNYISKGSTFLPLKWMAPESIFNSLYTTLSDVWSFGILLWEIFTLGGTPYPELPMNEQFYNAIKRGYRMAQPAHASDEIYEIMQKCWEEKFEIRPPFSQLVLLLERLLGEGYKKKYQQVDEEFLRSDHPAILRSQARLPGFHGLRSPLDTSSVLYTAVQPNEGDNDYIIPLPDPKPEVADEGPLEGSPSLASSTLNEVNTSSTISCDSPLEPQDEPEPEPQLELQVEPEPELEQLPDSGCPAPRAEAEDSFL
Data set [9] has as its target Platelet-derived growth factor receptor alpha (Homo sapiens, UniProt P16234). In words: Inhibition of PDGFRalpha (unknown origin) using poly[Glu:Tyr] (4:1) substrate by radioisotope-based P81 filter-binding assay.
Data set [10] has as its target Cytochrome P450 2C9 (Homo sapiens, UniProt P11712). In words: Inhibition of CYP2C9 (unknown origin) using Vivid OOMR substrate. It is filed as ADME.
Data set [11] addresses Cytochrome P450 2C19 (Homo sapiens, UniProt P33261). In words: Inhibition of CYP2C19 (unknown origin) using 3-Cyano-7-ethoxycoumarin substrate. The data set is classed as ADME.
Data set [12] deals with Cytochrome P450 3A4 (Homo sapiens, UniProt P08684). In words: Inhibition of CYP3A4 (unknown origin) using Vivid OOMR substrate. It is filed as ADME.
The nature of data set [13]: Half life in rat plasma at 2 mg/kg, iv after 24 hrs by LC-ESI-MS/MS method. It is filed as ADME, organism-based. Details: dose 2 mg/kg, route intravenous.
Data set [14] is described as follows: Clearance in rat at 2 mg/kg, iv after 24 hrs by LC-ESI-MS/MS method. It is filed as ADME, organism-based. More on the design: dose 2 mg/kg, route intravenous. The following applies: in vivo.
A short description of data set [15]: Volume of distribution at steady state in rat at 2 mg/kg, iv after 24 hrs by LC-ESI-MS/MS method. It is filed as ADME, organism-based. More on the design: dose 2 mg/kg, route intravenous. As to conditions: in vivo, read-out: Vdss.
For data set [16], the system named is Rattus norvegicus. In words: AUC (0 to 24 hrs) in rat plasma at 2 mg/kg, iv after 24 hrs by LC-ESI-MS/MS method. The data set is classed as ADME, organism-based. Details: time < 24 hr, dose 2 mg/kg, route intravenous. As to conditions: in vivo.
A short description of data set [17]: Antitumor activity against human HuH7 cells xenografted in po dosed SCID mouse assessed as inhibition of tumor growth at 2.5 mg/kg, iv qd for 14 days measured on day 9. The data set is classed as functional. As to conditions: Huh-7.
Data set [18] in a line: Antitumor activity against human HuH7 cells xenografted in po dosed SCID mouse assessed as inhibition of tumor growth at 2.5 mg/kg, iv qd measured on day 14. As to conditions: Huh-7, 336 h. It is filed as functional. (In general: Xenograft models place foreign cells or tissue in a host animal.)
Data set [19] relates to Vero. In words: Cytotoxicity against african green monkey Vero cells. It is filed as cell-based. The following applies: chlorocebus sabaeus.
Data set [20] in a line: Plasma concentration rat at 2 mg/kg, iv after 5 mins by LC-ESI-MS/MS method. It is filed as ADME, organism-based. Details: dose 2 mg/kg, route intravenous.
Data set [21] can be described thus: Plasma concentration rat at 2 mg/kg, iv after 24 hrs by LC-ESI-MS/MS method. More on the design: dose 2 mg/kg, route intravenous. It is filed as ADME, organism-based.
In data set [22] the test system is A549. In words: Anti-invasive activity against human A549 cells assessed as inhibition of cell invasion by transwell invasion assay.
The subject of data set [23] is A549. In words: Antimigratory activity against human A549 cells assessed as inhibition of cell migration after 8 to 16 hrs by scratch wound model assay.
A short description of data set [24]: Antitumor activity against human HuH7 cells xenografted in iv dosed SCID mouse assessed as inhibition of tumor growth at 5 mg/kg, iv qd for 14 days measured on day 9. The following applies: Huh-7, iv.
Data set [25] concerns the target Vascular endothelial growth factor receptor 2 (Homo sapiens, UniProt P35968). In words: Inhibition of VEGFR2 (unknown origin) using poly[Glu:Tyr] substrate by radioisotope-based P81 filter-binding assay.

In general, IC50 refers to the concentration at which inhibition is half-maximal. In general, half-life refers to the time in which the quantity being followed falls by half. What is called clearance is the volume of plasma or blood freed of the substance per unit of time. By AUC is commonly meant the area under the concentration-time curve, a measure of exposure. One may read the inhibition in vivo as the percentage by which the read-out fell short of the control.

Platelet-derived growth factor receptor alpha, sequence (P16234 whole entry): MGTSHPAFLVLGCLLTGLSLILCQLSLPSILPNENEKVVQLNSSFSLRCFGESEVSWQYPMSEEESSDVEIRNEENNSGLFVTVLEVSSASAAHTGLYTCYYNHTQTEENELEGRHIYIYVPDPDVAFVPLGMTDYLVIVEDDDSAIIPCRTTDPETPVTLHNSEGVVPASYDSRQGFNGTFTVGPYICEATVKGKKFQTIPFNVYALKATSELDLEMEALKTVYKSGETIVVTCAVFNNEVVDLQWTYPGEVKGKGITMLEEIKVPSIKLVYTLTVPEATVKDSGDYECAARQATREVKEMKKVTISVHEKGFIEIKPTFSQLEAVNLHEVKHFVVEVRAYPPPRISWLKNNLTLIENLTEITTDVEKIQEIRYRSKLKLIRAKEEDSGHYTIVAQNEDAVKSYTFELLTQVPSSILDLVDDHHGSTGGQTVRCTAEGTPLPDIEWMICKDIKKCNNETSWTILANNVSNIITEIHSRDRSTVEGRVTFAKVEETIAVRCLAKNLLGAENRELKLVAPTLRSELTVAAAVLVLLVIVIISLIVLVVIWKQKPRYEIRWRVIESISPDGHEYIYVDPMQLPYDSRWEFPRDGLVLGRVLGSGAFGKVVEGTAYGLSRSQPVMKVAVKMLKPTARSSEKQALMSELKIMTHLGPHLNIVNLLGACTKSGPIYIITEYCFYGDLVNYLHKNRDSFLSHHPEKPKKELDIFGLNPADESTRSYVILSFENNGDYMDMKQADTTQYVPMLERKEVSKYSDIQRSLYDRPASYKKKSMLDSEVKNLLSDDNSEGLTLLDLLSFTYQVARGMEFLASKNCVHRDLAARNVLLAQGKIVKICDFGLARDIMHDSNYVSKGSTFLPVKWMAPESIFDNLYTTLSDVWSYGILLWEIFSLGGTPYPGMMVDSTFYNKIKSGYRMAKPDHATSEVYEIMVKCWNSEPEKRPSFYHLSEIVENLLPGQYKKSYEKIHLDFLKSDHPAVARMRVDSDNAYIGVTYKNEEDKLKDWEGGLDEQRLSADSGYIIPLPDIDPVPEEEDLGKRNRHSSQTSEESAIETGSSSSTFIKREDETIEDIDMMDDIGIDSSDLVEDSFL
Cytochrome P450 2C9, sequence (P11712 whole entry): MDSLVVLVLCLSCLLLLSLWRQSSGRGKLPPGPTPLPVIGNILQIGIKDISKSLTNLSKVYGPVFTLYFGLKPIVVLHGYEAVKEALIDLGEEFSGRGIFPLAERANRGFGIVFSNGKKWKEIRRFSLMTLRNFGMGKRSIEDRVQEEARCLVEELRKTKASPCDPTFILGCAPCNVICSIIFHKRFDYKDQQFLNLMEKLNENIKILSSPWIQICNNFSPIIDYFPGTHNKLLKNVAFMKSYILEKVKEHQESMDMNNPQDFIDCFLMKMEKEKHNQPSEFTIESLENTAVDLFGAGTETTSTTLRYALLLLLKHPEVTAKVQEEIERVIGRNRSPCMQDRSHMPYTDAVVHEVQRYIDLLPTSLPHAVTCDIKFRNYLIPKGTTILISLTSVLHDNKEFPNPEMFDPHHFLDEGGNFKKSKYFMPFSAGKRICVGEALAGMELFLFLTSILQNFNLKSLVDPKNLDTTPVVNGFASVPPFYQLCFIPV
Cytochrome P450 2C19, sequence (P33261 whole entry): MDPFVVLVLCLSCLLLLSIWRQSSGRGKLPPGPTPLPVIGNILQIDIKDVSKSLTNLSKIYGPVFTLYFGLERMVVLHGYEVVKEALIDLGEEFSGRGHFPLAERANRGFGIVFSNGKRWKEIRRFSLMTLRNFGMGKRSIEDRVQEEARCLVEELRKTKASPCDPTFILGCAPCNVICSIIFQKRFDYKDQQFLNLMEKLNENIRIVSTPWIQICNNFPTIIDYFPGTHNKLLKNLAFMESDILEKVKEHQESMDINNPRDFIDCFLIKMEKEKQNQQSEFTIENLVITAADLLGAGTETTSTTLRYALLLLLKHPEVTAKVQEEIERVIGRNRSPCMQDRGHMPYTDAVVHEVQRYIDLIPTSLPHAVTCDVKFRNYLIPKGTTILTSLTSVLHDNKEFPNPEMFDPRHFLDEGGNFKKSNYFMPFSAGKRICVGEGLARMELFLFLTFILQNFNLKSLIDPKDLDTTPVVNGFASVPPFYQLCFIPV

For `COc1ccc(NC(=O)CC(=O)Nc2ccc3c(c2)NC(=O)/C3=C\c2[nH]c(C)c(C(=O)O)c2C)cc1`, the IC50 in data set [1] came to 203 nM; in data set [2] it was 5.9 nM; in data set [3], 154 nM; in data set [4], 6.4 nM; in [5] it was 31.1 nM; in data set [6], 5400 nM. Moreover, the IC50 in [7] is 7800 nM; in data set [8] it was 8.1 nM; in [9] it was below 1 nM.
With `O=C1Nc2cc(NC(=O)c3c[nH]cc(-c4ccccc4F)c3=O)ccc2/C1=C/c1ccc[nH]1`, the IC50 in data set [6] is 500 nM; in data set [7], 600 nM; in data set [10] it was 40 nM; in data set [11] it was 3500 nM; in data set [12], above 10000 nM; in data set [22], 3200 nM. Besides, in data set [23], the IC50 was found to be 4100 nM. In data set [13], this molecule showed a half-life of 11.8 h. Further, in [14], the clearance was 9.41 mL/min/kg. In addition, in data set [15], the Vd amounted to 9.34 L/kg. In [16], this molecule displayed an AUC of 3660 ng·h/mL. For the same molecule, the inhibition in vivo at 2.5 mg/kg was 56% in data set [17] and 38% in data set [18]. The Activity entry in data set [19] is “Non-toxic”. For the same molecule, the concentration at 5 min in [20] stood at 4790 ng/mL. The molecule also displayed a concentration at 24 h in [21] of 10 ng/mL. Besides, the inhibition in vivo at 5 mg/kg in data set [24] was 61%.
On to `COc1ccc(NC(=O)CC(=O)Nc2ccc3c(c2)NC(=O)/C3=C\c2[nH]c(C)c(C(=O)NCCN3CCCC3)c2C)cc1`, for which the IC50 in [25] came out at 20.7 nM; in [2], 93 nM; in data set [4], 2.1 nM; in [5], 10.6 nM; in data set [6], 5400 nM; in data set [7], 5100 nM. The IC50 was 1.54 nM in data set [8] and below 1 nM in data set [9].

Source of the values: ChEMBL document CHEMBL3351387, “Bioisosteric replacement of an acylureido moiety attached to an indolin-2-one scaffold with a malonamido or a 2/4-pyridinoylamido moiety produces a selectively potent Aurora-B inhibitor” (Eur J Med Chem, 2014).
